# Test results taken from patent US20190314196A1, “Topical Ocular Delivery Methods and Devices for Use in the Same” (Kedalion Therapeutics, Inc., priority 2018, published 2019).
# Columns and labels:
# Assay type in all cases: in vivo, human
# eye of subjects [1] = experiment: Presbyopia: pupil diameter after self-administered pilocarpine micro-dose
# Protocol: (§1) A 10 μl micro-dose of a 1% pilocarpine solution was self-administered using an electromagnetic actuated fluid delivery device, e.g., as described above, by three subjects to their own eye. The age range of the subjects was 52 years to 68 years, and all subjects were male. The pilocarpine micro-dose was self-administered by the subjects.
# (§2) Baseline, pre-dose values of pupil diameter and near visual acuity in both eyes prior to dosing was measured for all subjects, and then following the baseline measurements, the subjects were dosed in only one eye (the eye with the poorer visual acuity) with the micro-dose pilocarpine solution. Approximately 45 to 60 minutes after dosing, pupil diameter and near visual acuity were again tested. Near visual acuity was measured using a Snellen card at a distance of 40 cm. A tabulation of results is given below in Table A.
# eye of subjects [2] = experiment: Presbyopia: near visual acuity, Snellen card at 40 cm; settings: 45 to 60 minutes after dosing
# Protocol: as §1, §2
# [3] = tested on: patients diagnosed with primary open angle glaucoma; experiment: Trial 2: intraocular pressure reduction, Goldmann applanation tonometry; settings: for Post-treatment IOP, Mean: 0.005% w/v, N=18 eyes; for Post-treatment IOP, Mean / average decrease in IOP measured per patient / Post-treatment IOP, Median: approx. 8 hours after dosing; for Post-treatment IOP, Median: baseline median 18.0; for Total pressure reduction, Mean / Total pressure reduction, Median: signed change from baseline
# Protocol: Trial 2 compared the efficacy (dose volume equivalence) of 0.005% w/v latanoprost for intraocular pressure reduction when delivered via AcuStream™ (pre-trial calibration volume=9.2 μl) versus the standard eye dropper for topical drug delivery (approximate volume=30 μl).
# Patients included in Trial 2 have previously been diagnosed with primary open angle glaucoma on the basis of intraocular pressure and visual field testing, fundus examination or optical coherence tomography (OCT) data and are currently on prostaglandin analog medical therapy. Patients with corneal abnormalities that would interfere with accurate IOP measurements with applanation tonometry, use of an oral or topical ophthalmic steroids within the past 14 days from screening date, any active ocular surface or anterior segment disease, or progressive field loss during the past year were excluded from the study. Thirteen men and five women participated in the trial.
# Recruited patients were taken off medical therapy for a period of 3-4 weeks prior to the study to allow drug “wash out”, thereby elevating their IOPs to pre-treatment levels which was confirmed by examination of the patients' chart history. Patients were randomly assigned as “test” (AcuStream™), or “control” (standard eye dropper). The mean age of the control group and test group were 61.0 years and 65.2 years, respectively.
# The patients assigned to either the “test” or “control” group by means of a random numbers table in order to mitigate any potential cross-over effects that could confound data interpretation. An odd number dictated that the patient was in the test group, while even-numbered patients were in the control group.
# After performing slit lamp examinations on each patient to verify eligibility and obtaining informed consent, intraocular pressure (IOP) was measured by a sole experienced examiner who was blind to the randomized conditions. A pre-calibrated Goldmann applanation tonometer coupled to a Haag-Streit 900 EQ slit lamp was used to conduct baseline IOP measurements. Once baseline IOP data were verified to be equivalent to pre-medical therapy levels (based on patient's treatment history), the patient then continued to the dosing stage of the study.
# Latanoprost solution was administered by a sole ophthalmologist to both eyes of each patient, based on the pre-determined randomized condition.
# [4] = standard eye dropper control group
smiles,measurement,setting,value
CC[C@@H]1C(=O)OC[C@@H]1Cc1cncn1C [pilocarpine],Mean change in dosed pupil dia,"eye of subjects [1]; dosed eye, 10 μl micro-dose of 1% solution, 45 to 60 minutes after dosing, 3 subjects",−0.7 mm
same,Mean post-dose pupil dia,"eye of subjects [1]; dosed eye, 10 μl micro-dose of 1% solution, 45 to 60 minutes after dosing, 3 subjects, baseline mean 2.9 mm",2.2 mm
same,mean reduction in pupil diameter,"eye of subjects [1]; dosed eye, 10 μl micro-dose of 1% solution, all subjects",0.70 mm
same,miotic effect in non-dosed eye,eye of subjects [1]; non-dosed contralateral eye,no miotic effect
same,Mean change in non-dosed pupil dia,"eye of subjects [1]; non-dosed contralateral eye, 45 to 60 minutes after dosing",0.2 mm
same,Mean non-dose pupil dia,"eye of subjects [1]; non-dosed contralateral eye, 45 to 60 minutes after dosing, baseline mean 2.8 mm",3.0 mm
same,Median dosed eye near visual acuity,eye of subjects [2]; baseline median 20/30,20/20
same,# of lines change in visual acuity (mean improvement),"eye of subjects [2]; dosed eye, 3 subjects",2 lines
CC(C)OC(=O)CCC/C=C\C[C@@H]1[C@@H](CC[C@@H](O)CCc2ccccc2)[C@H](O)C[C@@H]1O [latanoprost],difference in IOP reduction between groups,[3]; AcuStream 9.2 μl versus standard eye dropper 30 μl,no statistically significant differences
same,"Post-treatment IOP, Mean","[3]; AcuStream test group, 9.2 μl, baseline 18.6",13.6 mm Hg
same,average decrease in IOP measured per patient,[3]; AcuStream test group,5.0 mm Hg
same,"Post-treatment IOP, Median",[3]; AcuStream test group,13.0 mm Hg
same,"Total pressure reduction, Mean",[3]; AcuStream test group,−5.0 mm Hg
same,"Total pressure reduction, Median",[3]; AcuStream test group,−5.0 mm Hg
same,"post-instillation IOP (OD), single patient outlier","[3]; control group, baseline IOP 30 mm Hg",17 mm Hg
same,"equivalence of 9.2 μl AcuStream dose to 30 μl standard eye drop, intraocular pressure reduction",[3]; latanoprost 0.005% w/v,pharmacodynamic equivalence
same,"Post-treatment IOP, Mean","[3]; standard eye dropper control group, approx. 30 μl, baseline 17.7",13.3 mm Hg
same,average decrease in IOP measured per patient,[3]; [4],4.3 mm Hg
same,"Post-treatment IOP, Median",[3]; [4],12.0 mm Hg
same,"Total pressure reduction, Mean",[3]; [4],−4.3 mm Hg
same,"Total pressure reduction, Median",[3]; [4],−4.0 mm Hg
